In patent publication US4379779A, “Equilin hapten and assay method” (American Home Products Corporation, priority 1980, dated 1983):

Legend:
[1] = system: Equilin Antibody (anti-equilin serum); experiment: Cross-reactivity of steroids with anti-equilin serum (radioimmunoassay); type: binding, rabbit; conditions: for Equilin Antibody (Percent Cross-Reactivity): Table 1, anti-equilin serum, [2,4-3H]-equilin tracer
Protocol: A standard was prepared from a stock solution of unlabeled equilin in absolute ethanol (100 ng/ml). A working standard solution containing 1 ng/ml of equilin was prepared in sodium phosphate buffer (0.1 M, pH 7, 0.9% NaCl). The labeled [2,4-^3 H]-equilin solution was prepared in the assay buffer at a concentration of 100 pg/ml. The antiserum was prepared in BSA-assay buffer (1 g BSA/1000 ml sodium phosphate buffer) at a concentration of one-fifth of the final working dilutions.
The standard curve was established by preparing duplicate 3 ml centrifuge tubes containing 0, 50, 100, 250, 500, 1000, and 2000 pg of equilin in a total volume of 0.5 ml assay buffer. The sample tubes were prepared in duplicate with hydrolyzed plasma extract (0.1 ml) and assay buffer (0.4 ml) in a total volume of 0.5 ml. To all standard and sample tubes antibody (0.25 ml) and labeled steroid (0.5 ml) were added. These were mixed and allowed to incubate at 4° C. for 18 hr. After addition of 0.2 ml gamma globulin dextrancoated charcoal (4 g charcoal, 0.4 g dextran, 0.8 g human gamma globulin, 200 ml deionized water), each tube was again mixed and placed in a cold room (4° C.) for 20 min. After centrifugation at 2,500 rev./min for 6 min, 0.5 ml of each supernatant was aliquoted into a counting vial. Then 15 ml of a scintillation medium (4 g of 2,5-diphenyloxazole (PPO), 50 mg of 1,4-di-2-(5-phenyloxazoyl)-benzene(dimethyl-POPOP), 100 ml of an aqueous solubilizer Biosolv BBS-3 (Biosolv is a trademark of Bechman Istruments, Irvine, Calif., U.S.A.) and 1000 ml toluene) was added to each vial. The samples were counted to a relative standard error of less than 2% in a Packard model 3320 liquid scintillation counter, Packard Instrument Co., Downers Grove, Ill., U.S.A., see C. Matthijssen and J. W. Goldzieher, Analyt. Biochem., 10, 401 (1965).
All rabbits immunized with the immunogen produced antisera with high titers and specificity in 6 months' time. The titer was determined from the ability of antibody to bind a constant amount (50 pg) of the labeled steroid. As a primary step, the cross-reactivity [G. E. Abraham, J. Clin. Endocrinol. Metabol., 29, 866 (1969)] of estrone with anti-equilin serum obtained from each rabbit was evaluated. […] These latter two compounds represent about 2% each of the typical composition of estrogens present in conjugated estrogens and will not interfere, as shown, in the validation of the assay.

[2] = Oxidation of equilin to equilenin during formic acid hydrolysis of the conjugate fraction (HPLC); type: physicochemical; conditions: 120 min
Protocol: Plasma (0.2 ml) and distilled water (0.7 ml) were added to a 16×125 nm tube and mixed. [6,7-^3 H]-Estrone-3-sulfate (0.1 ml, 2,000 cpm) and [2,4-^3 H]-equilin (0.1 ml, 2,000 cpm) were then added to correct for recovery through the assay procedure, and the sample again mixed well and allowed to stand at room temperature for 30 min. Diethyl ether (2 ml) was added for extraction of the free compound. The extraction was repeated three times and the combined extracts washed with distilled water (1 ml) and the solvent removed by evaporation. The aqueous phase containing the conjugates was re-extracted with 2 ml of ethyl acetate-ethanol (4:1, v/v). The extraction was repeated two more times and the combined extracts were dried in a centrifuge tube (12 ml) under a stream of nitrogen. The conjugate fraction was hydrolyzed with formic acid. A solution of ethyl acetate (1 ml) containing formic acid (20% ) and ascorbic acid (1 mg) was added to the tube containing the conjugate fraction. The tube was tightly closed, vortexed, and sonified for 10 min before being placed in a 37° C. water bath for 2 hr. The hydrolyzed sample was taken to dryness, sodium phosphate buffer (1 ml) was added. The solution was vortexed and allowed to stand at 20° C. for 10 min. The hydrolyzed free compound was extracted with diethyl ether (2 ml) three times and taken to dryness. […]

Compound | Equilin Antibody (Percent Cross-Reactivity) [1] [%] | also measured
C[C@]12CC[C@@H]3c4ccc(O)cc4CC[C@H]3[C@@H]1CC[C@H]2O [17α-Estradiol] | < 0.10 | 
C[C@]12CCC3=C(CCc4cc(O)ccc43)[C@@H]1CCC2=O [8-Dehydroestrone] | 0.94 | 
C[C@]12CC[C@@H]3c4ccc(O)cc4CC[C@H]3[C@@H]1CC[C@@H]2O [17β-Estradiol] | < 0.10 | 
C[C@]12CC[C@H]3C(=CCc4cc(OS(=O)(=O)O)ccc43)[C@@H]1CCC2=O [Equilin 3-Sulfate] | 1.36 | 
C[C@]12CC[C@@H]3c4ccc(O)cc4C=C[C@H]3[C@@H]1CCC2=O [6-Dehydroestrone] | < 0.10 | 
C[C@]12CC[C@H]3C(=CCc4cc(O)ccc43)[C@@H]1CCC2=O [Equilin, 3-hydroxy-1,3,5(10),7-estratetraen-17-one] | 100.0 | equilin oxidized to equilenin during hydrolysis ([2]; formic acid hydrolysis with 0.1% (w/v) ascorbic acid added): 2-3%; equilin oxidized to equilenin during hydrolysis ([2]; hydrolysis of conjugate fraction with formic acid, no antioxidant): 13-16%
C[C@]12CCc3c(ccc4cc(O)ccc34)[C@@H]1CCC2=O [Equilenin] | 3.45 | cross-reaction with anti-equilin serum [1]: 3.5%
C[C@]12CC[C@H]3C(=CCc4cc(O)ccc43)[C@@H]1CC[C@@H]2O [17β-Dihydroequilin] | 2.86 | cross-reaction with anti-equilin serum [1]: 2.9%
C[C@]12CC[C@@H]3c4ccc(O)cc4C[C@@H](O)[C@]3(O)[C@@H]1CCC2=O [Equilin-7α,8α-glycol] | < 0.10 | 
C[C@]12CCC(=O)C=C1CC[C@@H]1[C@@H]2CC[C@]2(C)C(=O)CC[C@@H]12 [4-Androstene-3,17-dione] | < 0.10 | 
C[C@]12CCC(=O)C=C1CC[C@@H]1[C@@H]2[C@@H](O)C[C@@]2(C)[C@H]1CC[C@]2(O)C(=O)CO [Cortisol] | < 0.10 | 
C[C@]12CC[C@H](O)CC1=CC[C@@H]1[C@@H]2CC[C@]2(C)C(=O)CC[C@@H]12 [Dehydroepiandrosterone] | < 0.10 | 
C[C@]12CCc3c(ccc4cc(O)ccc34)[C@@H]1CC[C@H]2O [17α-Dihydroequilenin] | < 0.10 | 
C[C@]12CC[C@@H](O)C[C@@H]1CC[C@@H]1[C@@H]2CC[C@]2(C)C(=O)CC[C@@H]12 [Androsterone] | < 0.10 | 
C[C@]12CC[C@@H]3c4ccc(O)cc4CC[C@H]3[C@@H]1CCC2=O [Estrone] | 0.78 | cross-reaction with anti-equilin serum [1]: negligible cross-reaction
C[C@]12CC[C@H]3C(=CCc4cc(O)ccc43)[C@@H]1CC[C@H]2O [17α-Dihydroequilin] | < 0.10 | 
C[C@]12CC[C@H]3[C@@H](CCC4=CC(=O)CC[C@@]43C)[C@@H]1CC[C@@H]2O [Testosterone] | < 0.10 | 
C[C@]12CCc3c(ccc4cc(O)ccc34)[C@@H]1CC[C@@H]2O [17β-Dihydroequilenin] | < 0.10 | 
CC(=O)[C@H]1CC[C@H]2[C@@H]3CCC4=CC(=O)CC[C@]4(C)[C@H]3CC[C@]12C [Progesterone] | < 0.10 | 
C[C@]12CC[C@@H]3c4ccc(OS(=O)(=O)O)cc4CC[C@H]3[C@@H]1CCC2=O [Estrone 3-sulfate] | < 0.10 | 
